Legend:
U87-DG cells = assay: Evaluation of anticancer drug resistance: cell viability with doxorubicin, U87-DG cells (chip cells); format: cell-based; conditions: Homo sapiens; U87-DG cells (chip cells) cultured with Death galaxy chip under doxorubicin gradient; 72 h culture; living cell count; non-linear regression
Excerpt: In the Death galaxy chip, for 7 days, U87 cells derived from human primary glioblastoma were exposed to an anticancer drug such as doxorubicin according to a concentration gradient, and a hexagonal microchamber array was removed from a surface of the living cells (U87-DG cells)-attached cell culture plate. The inventors trypsinized the U87-DG cells to analyze the characteristic of phenotypes thereof, collected the cells, and transferred them to a new culture plate to culture the cells in a normal growth medium (MEM) for one week.
(§1) 3,000 cells (U87 and U87-DG cells) were seeded into a 96-well plate in 200 μl of an MEM medium containing doxorubicin at various concentrations (0, 0.005, 0.01, 0.02, 0.05, 0.1, 0.2, 0.5, 0.75, and 1 μM). After seventy-two hours of culturing, the number of living cells in each well was calculated. Cell viability was calculated by dividing the number of living cells in a doxorubicin-contained well by the number of living cells in a doxorubicin-free well. After plotting a concentration of doxorubicin with respect to cell viability, IC50 was estimated through non-linear regression analysis using Graphpad Prism (GraphPad Software, Inc., La Jolla, Calif. USA).

U87 cells = assay: Evaluation of anticancer drug resistance: cell viability with doxorubicin, U87 cells (WT cells); format: cell-based; conditions: Homo sapiens, U-87 MG; U87 cells (WT cells) cultured in general medium; 72 h culture; living cell count; non-linear regression
Procedure: as §1

IC50 (U87 cells): 50 nM
Structure (SMILES): COc1cccc2c1C(=O)c1c(O)c3c(c(O)c1C2=O)C[C@@](O)(C(=O)CO)C[C@@H]3O[C@H]1C[C@H](N)[C@H](O)[C@H](C)O1 [doxorubicin]
IC50 (U87-DG cells): 1470 nM

— US20180290138A1, “MICROFLUIDIC CHIP FOR SCREENING ANTICANCER DRUG RESISTANT CELLS AND USE THEREOF” (RESEARCH & BUSINESS FOUNDATION SUNGKYUNKWAN UNIVERSITY, priority 2015, published 2018)
